Ki, Activity and Ratio Ki data for 17 compounds are collected here from ChEMBL document CHEMBL1155783, “Novel sterically hindered cannabinoid CB1 receptor ligands” (Bioorg Med Chem, 2008).

One assay has as its target Cannabinoid receptor 2 (Homo sapiens, UniProt P34972). Kind of assay: Displacement of [3H]CP-55940 from human recombinant CB2 receptor expressed in HEK cells. It counts as cell-based, HEK293. For orientation: Displacement assays read how much labelled ligand stays bound in the presence of the test substance.
A further assay concerns the target Cannabinoid receptor 1 (Homo sapiens, UniProt P21554). Kind of assay: biochemical. In kind it is cell-based, HEK293.
Assay [1] concerns the target Cannabinoid receptor 1 (Mus musculus) (UniProt P47746). Kind of assay: Agonist activity at mouse CB1 receptor in N18TG2 cells assessed as inhibition of forskolin-stimulated cAMP formation at 1 uM in presence of 0.1 uM WIN-55212-2. Background: Cyclic AMP is a second messenger, typically raised through Gs and lowered through Gi signalling.
The next assay is filed under the species Homo sapiens. Kind of assay: Selectivity of Ki for human recombinant CB1 receptor over Ki for human recombinant CB2 receptor.

SMILES strings stand for the structures. Active and inactive are the calls of the source. The calls are words filed in the database; no cut-off is given here. Bounds are passed on as bounds.

Sequence of Cannabinoid receptor 1 (P21554 whole entry): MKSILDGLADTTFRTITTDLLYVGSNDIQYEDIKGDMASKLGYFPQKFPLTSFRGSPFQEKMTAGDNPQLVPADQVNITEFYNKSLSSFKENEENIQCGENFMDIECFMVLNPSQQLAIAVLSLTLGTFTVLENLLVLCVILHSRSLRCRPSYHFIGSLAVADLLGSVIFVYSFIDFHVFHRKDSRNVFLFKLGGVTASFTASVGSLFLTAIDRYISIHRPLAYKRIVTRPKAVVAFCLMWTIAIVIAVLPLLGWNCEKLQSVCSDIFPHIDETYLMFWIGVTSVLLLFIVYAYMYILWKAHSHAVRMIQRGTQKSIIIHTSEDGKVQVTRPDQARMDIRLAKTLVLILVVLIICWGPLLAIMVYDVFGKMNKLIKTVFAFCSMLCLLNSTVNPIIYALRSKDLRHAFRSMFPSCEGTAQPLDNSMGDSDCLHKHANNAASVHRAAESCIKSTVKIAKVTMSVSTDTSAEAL
Sequence of Cannabinoid receptor 2 (P34972 whole entry): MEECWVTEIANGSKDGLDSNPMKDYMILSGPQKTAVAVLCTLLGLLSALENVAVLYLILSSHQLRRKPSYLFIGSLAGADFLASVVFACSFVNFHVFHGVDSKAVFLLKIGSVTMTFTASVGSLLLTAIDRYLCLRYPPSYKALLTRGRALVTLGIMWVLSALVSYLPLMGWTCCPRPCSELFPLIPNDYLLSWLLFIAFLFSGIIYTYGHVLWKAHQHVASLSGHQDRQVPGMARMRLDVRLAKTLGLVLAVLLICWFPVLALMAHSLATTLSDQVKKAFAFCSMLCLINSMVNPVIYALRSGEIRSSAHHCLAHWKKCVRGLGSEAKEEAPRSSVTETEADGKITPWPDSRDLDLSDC
Sequence of Cannabinoid receptor 1 (Mus musculus) (P47746 whole entry, looked up): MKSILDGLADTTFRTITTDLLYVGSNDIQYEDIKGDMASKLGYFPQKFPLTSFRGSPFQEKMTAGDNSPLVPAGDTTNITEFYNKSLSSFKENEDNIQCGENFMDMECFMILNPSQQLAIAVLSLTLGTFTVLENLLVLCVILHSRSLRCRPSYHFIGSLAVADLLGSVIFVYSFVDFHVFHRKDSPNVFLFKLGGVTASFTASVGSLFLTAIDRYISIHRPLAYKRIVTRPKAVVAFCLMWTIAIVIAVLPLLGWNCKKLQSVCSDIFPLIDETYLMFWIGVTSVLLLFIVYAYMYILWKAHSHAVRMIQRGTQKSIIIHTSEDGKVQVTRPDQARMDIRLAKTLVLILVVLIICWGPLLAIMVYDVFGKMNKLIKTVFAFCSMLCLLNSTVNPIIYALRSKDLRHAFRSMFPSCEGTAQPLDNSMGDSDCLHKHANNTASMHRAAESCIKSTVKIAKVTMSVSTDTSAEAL

In general, Ki refers to a measure of affinity in units of concentration, obtained from inhibition or displacement. With `O=C(NCCC(c1ccccc1)c1ccccc1)C(c1ccccc1)c1ccc(Cl)cc1` (stereo unspecified), the Ki was over 7900 nM at Cannabinoid receptor 2 and 560 nM at Cannabinoid receptor 1.
As to `O=C(Cc1ccc(Br)cc1)NCCC(c1ccccc1)c1ccccc1`, the Ki at Cannabinoid receptor 2 worked out at 1300 nM; on Cannabinoid receptor 1 it was 800 nM.
`O=C(NCCC(c1ccccc1)c1ccccc1)C(O)(c1ccccc1)c1ccccc1`: the Ki on Cannabinoid receptor 2 was 2300 nM; on Cannabinoid receptor 1 it was 2200 nM.
In the case of `O=C(NCCC(c1ccccc1)c1ccccc1)C(c1ccccc1)c1ccc(Br)cc1` (stereo unspecified), the Ki at Cannabinoid receptor 2 is over 7900 nM; on Cannabinoid receptor 1, 220 nM.
Take `O=C(NCCC(c1ccccc1)c1ccccc1)C(c1ccccc1)c1ccccc1`: in assay [1], the outcome was inactive. The Ki was 7900 nM on Cannabinoid receptor 2 and 58 nM at Cannabinoid receptor 1. Further, the Ratio Ki in the assay filed under Homo sapiens came out at 140.
For the compound `O=C(NCCC(c1ccccc1)c1ccccc1)C(Cl)(c1ccccc1)c1ccccc1`, the Ki at Cannabinoid receptor 2 was found to be 1400 nM; at Cannabinoid receptor 1, 280 nM.
The matching figures for `O=C(NCCCc1ccccc1)C(c1ccccc1)c1ccc(Cl)cc1` (stereo unspecified): 2400 nM and 2200 nM.
Taken in the same sequence, the figures for `Cc1ccc(C(C(=O)NCCC(c2ccccc2)c2ccccc2)c2ccccc2)cc1` (stereo unspecified) were 650 nM and 560 nM.
`O=C(NCCC(c1ccccc1)c1ccccc1)C(c1ccccc1)c1ccc(O)cc1` (stereo unspecified): the Ki at Cannabinoid receptor 2 was found to be 1100 nM; on Cannabinoid receptor 1, 560 nM.
The matching figures for `COc1ccc(C(C(=O)NCCC(c2ccccc2)c2ccccc2)c2ccccc2)cc1` (stereo unspecified): 790 nM and 560 nM.
The matching figures for `O=C(NCCCc1ccccc1)C(c1ccccc1)c1ccc(Br)cc1` (stereo unspecified): 1800 nM and 1900 nM.
The matching figures for `O=C(Cc1ccccc1)NCCC(c1ccccc1)c1ccccc1`: over 7900 nM and 560 nM.
Regarding `O=C(Cc1ccc(Cl)cc1)NCCC(c1ccccc1)c1ccccc1`, the Ki at Cannabinoid receptor 2 turned out to be 2400 nM; at Cannabinoid receptor 1, 1600 nM.
Taken in the same sequence, the figures for `O=C(NCCCc1ccccc1)C(c1ccccc1)c1ccccc1` were over 7900 nM and 3400 nM.
The matching figures for `Nc1ccc(C(C(=O)NCCC(c2ccccc2)c2ccccc2)c2ccccc2)cc1` (stereo unspecified): 1200 nM and 900 nM.
The matching figures for `O=C(NCCC(c1ccccc1)c1ccccc1)C(c1ccccc1)c1ccc([N+](=O)[O-])cc1` (stereo unspecified): 790 nM and 560 nM.
Consider `CC(C(=O)NCCC(c1ccccc1)c1ccccc1)(c1ccccc1)c1ccccc1`, for which the Ki on Cannabinoid receptor 2 is 290 nM; on Cannabinoid receptor 1, 560 nM.
